# Data published in ChEMBL document CHEMBL1130853, “Synthesis and biological properties of new 1 beta-methylcarbapenems” (Bioorg Med Chem Lett, 1998).
# Key:
# [1] = biological target: T1, Dipeptidase 1 (Sus scrofa) (UniProt P22412); experiment: Compound was evaluated for relative rate of hydrolysis to imipenem by partially purified porcine renal Dehydropeptidase-1; parameters: scale not given: the % may be the effect or the level left
# T1 sequence (whole entry): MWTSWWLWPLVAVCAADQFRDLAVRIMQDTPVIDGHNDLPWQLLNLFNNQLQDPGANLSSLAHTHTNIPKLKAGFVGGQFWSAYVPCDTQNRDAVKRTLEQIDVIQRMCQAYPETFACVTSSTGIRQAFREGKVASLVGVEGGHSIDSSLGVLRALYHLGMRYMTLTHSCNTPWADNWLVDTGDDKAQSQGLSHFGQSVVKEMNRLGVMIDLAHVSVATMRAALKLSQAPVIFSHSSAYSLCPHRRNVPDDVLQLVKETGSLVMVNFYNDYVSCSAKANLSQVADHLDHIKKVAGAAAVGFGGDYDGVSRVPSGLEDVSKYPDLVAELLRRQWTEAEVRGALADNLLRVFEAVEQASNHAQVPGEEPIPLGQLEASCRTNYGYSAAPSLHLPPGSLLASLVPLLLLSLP
# [2] = Antibacterial activity against Enterobacter cloacae 1321E; format: functional
# Escherichia coli [3] = experiment: microbe, parasite or virus in culture; format: functional
# Description: Antibacterial activity against Escherichia coli 1507E
# Pseudomonas aeruginosa [4] = experiment: microbe, parasite or virus in culture; format: functional
# Description: Compound was evaluated for antibacterial activity against Pseudomonas aeruginosa 1592E
# Pseudomonas aeruginosa [5] = experiment: microbe, parasite or virus in culture; format: functional; remark: listed apart in the source
# Description: Antibacterial activity against Pseudomonas aeruginosa 1771M
# Salmonella typhimurium = experiment: Antibacterial activity against Salmonella Typhimurium; format: functional, Salmonella enterica subsp. enterica serovar Typhimurium; conditions: Salmonella enterica
# Staphylococcus aureus = experiment: Antibacterial activity against Staphylococcus aureus SG 511; format: functional
# Streptococcus pyogenes [6] = experiment: Antibacterial activity against Streptococcus pyogenes 77A; format: functional
# Enterococcus faecium = experiment: Antibacterial activity against Streptococcus faecium MD 8b; format: functional
# Klebsiella aerogenes = experiment: Antibacterial activity against Klebsiella aerogenes 1522E; format: functional
# [7] = Time taken by the compound to reach maximum concentration.; format: ADME
# Escherichia coli [8] = experiment: Compound was tested for in vivo protective activity against Escherichia coli 078 at a single subcutaneous administration in mice.; format: functional; conditions: sc, read-out: PD50
# Pseudomonas aeruginosa [9] = experiment: Compound was tested for in vivo protective activity against Pseudomonas aeruginosa 1771M at a single subcutaneous administration in mice.; format: functional; conditions: sc, read-out: PD50
# Streptococcus pyogenes [10] = experiment: Compound was tested for in vivo protective activity against Streptococcus pyogenes 77A at a single subcutaneous administration in mice.; format: functional; conditions: sc, read-out: PD50
SMILES,MIC [2] [µg/mL],MIC (Escherichia coli [3]) [µg/mL],MIC (Pseudomonas aeruginosa [4]) [µg/mL],MIC (Pseudomonas aeruginosa [5]) [µg/mL],MIC (Salmonella typhimurium) [µg/mL],MIC (Staphylococcus aureus) [µg/mL],MIC (Streptococcus pyogenes [6]) [µg/mL],MIC (Enterococcus faecium) [µg/mL],MIC (Klebsiella aerogenes) [µg/mL],Stability [1] [%],Tmax [7] [min],ED50 (Escherichia coli [8]) [mg/kg],ED50 (Pseudomonas aeruginosa [9]) [mg/kg],ED50 (Streptococcus pyogenes [10]) [mg/kg]
C[C@@H](O)[C@H]1C(=O)N2C(C(=O)O)=C(SCCNC=N)C[C@H]12 [IMIPENEM ANHYDROUS],0.195,0.195,0.781,0.195,0.781,0.013,0.004,1.56,0.391,10000,,,,
C[C@@H](O)[C@H]1C(=O)N2C(C(=O)O)=C(S[C@@H]3CN[C@H](C(=O)NCCC(=O)O)C3)[C@H](C)[C@H]12,0.049,0.049,6.25,3.12,0.098,1.56,0.049,50,0.098,,,,,
C[C@@H](O)[C@H]1C(=O)N2C(C(=O)O)=C(S[C@@H]3CN[C@H](C(=O)NCCS(=O)(=O)N(C)CCO)C3)[C@H](C)[C@H]12,0.025,0.025,1.56,0.781,0.049,0.391,0.013,12.5,0.049,,,,,
C[C@@H](O)[C@H]1C(=O)N2C(C(=O)O)=C(S[C@@H]3CN[C@H](C(=O)NCCC(=O)NCCO)C3)[C@H](C)[C@H]12,0.025,0.049,0.391,0.391,0.098,0.391,0.007,12.5,0.098,,,,,
C[C@@H](O)[C@H]1C(=O)N2C(C(=O)O)=C(S[C@@H]3CN[C@H](C(=O)NCCS(N)(=O)=O)C3)[C@H](C)[C@H]12,0.025,0.013,0.195,0.195,0.025,0.098,0.004,6.25,0.049,2400,< 19.8,0.47,2.6,2.31

# Continued by falling MIC [2], values first:
MIC [2] [µg/mL],MIC (Escherichia coli [3]) [µg/mL],MIC (Pseudomonas aeruginosa [4]) [µg/mL],MIC (Pseudomonas aeruginosa [5]) [µg/mL],MIC (Salmonella typhimurium) [µg/mL],MIC (Staphylococcus aureus) [µg/mL],MIC (Streptococcus pyogenes [6]) [µg/mL],MIC (Enterococcus faecium) [µg/mL],MIC (Klebsiella aerogenes) [µg/mL],SMILES,Stability [1] [%],Tmax [7] [min],ED50 (Escherichia coli [8]) [mg/kg],ED50 (Pseudomonas aeruginosa [9]) [mg/kg],ED50 (Streptococcus pyogenes [10]) [mg/kg]
0.025,0.025,1.56,0.195,0.049,0.195,0.007,12.5,0.049,COC(=O)CCNC(=O)[C@@H]1C[C@H](SC2=C(C(=O)O)N3C(=O)[C@H]([C@@H](C)O)[C@H]3[C@H]2C)CN1,,,,,
0.025,0.025,0.781,0.391,0.049,0.391,0.013,12.5,0.049,CNC(=O)CCNC(=O)[C@@H]1C[C@H](SC2=C(C(=O)O)N3C(=O)[C@H]([C@@H](C)O)[C@H]3[C@H]2C)CN1,,,,,
0.025,0.025,1.56,0.391,0.049,0.195,0.007,12.5,0.049,C[C@@H](O)[C@H]1C(=O)N2C(C(=O)O)=C(S[C@@H]3CN[C@H](C(=O)NCCC(=O)N(C)C)C3)[C@H](C)[C@H]12,,,,,
0.025,0.025,0.391,0.391,0.049,0.195,0.007,12.5,0.049,C[C@@H](O)[C@H]1C(=O)N2C(C(=O)O)=C(S[C@@H]3CN[C@H](C(=O)NCCS(=O)(=O)NCCO)C3)[C@H](C)[C@H]12,,,,,
